These results are taken from ChEMBL document CHEMBL1201862, “PubChem BioAssay data set” (2004).

Each structure is given as a SMILES string. Active and inactive are the calls of the source. No cut-off for these calls is given here.

The test in a line: Late stage results for the probe development effort to identify inhibitors of Plasmodium falciparum gametocytes: Luminescence-based cell-based high throughput dose response assay to identify inhibitors of viability of late stage Plasmodium falciparum gametocytes. In kind it is functional.

What is called IC50 is the concentration that gives 50% inhibition. `O=C(Nc1nccs1)c1cn(-c2ccccc2)nc1-c1ccc(F)cc1`: the IC50 was > 74.4 µM (inactive).
